AC26 data for 96 molecules are collected here from PubChem BioAssay AID624491 (Broad Institute, 2012).

This test concerns D54 ERlucT glycosylation luciferase reporter, luminescence, 24 h. As to the kind of experiment: blockers of NLG process in reporter cells – D54 ERlucT cells, luminescence, cherry-picks, dose response (AID 624491).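 Further: signal gain reflects blocked N-linked glycosylation of a luciferase reporter; actives raise luciferase signal so AC26 marks activators of the reporter.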

The source made the active and inactive calls.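 How the source made its calls: active means fitted curve crossing a set activation limit at or below the highest valid dose tested; inconclusive means flat fit at 30 to 70% activation, or poor fit; inactive means the rest, including signal decreases.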 Some results are limits rather than exact numbers.

In the case of `CC(=O)N1CCc2c(sc(NC(=O)c3ccc4c(c3)OCCO4)c2C#N)C1`, the AC26 is 1950 nM.
Take `Cn1c(=O)n(C)c2cc(S(=O)(=O)N3CCCc4ccccc43)ccc21`: the AC26 was 3550 nM.
The result for `COc1ccc(NC(=O)COC(=O)/C=C/C(=O)OCC(=O)Nc2ccc(OC)c(Cl)c2)cc1Cl` reads 16600 nM; that for `CCN1C(=O)Nc2cccc3cccc1c23`, 3360 nM; that for `Cc1noc(C)c1COc1cccc(C(=O)OC(C)C(=O)Nc2ccc3c(c2)OCO3)c1` (stereo unspecified), 40.4 nM.
On to `C=CCn1cccc(/C=C/C(=O)c2ccc(C(C)(C)C)cc2)c1=S`, for which the AC26 is 1290 nM.
As to `Cc1c2cnccc2c(C)c2c1oc1ccccc12`, the AC26 is 2820 nM.
Take `COc1ccc(/C=C2\CC/C(=C\c3ccc(OC)c(OC)c3)C2=O)cc1OC`: the AC26 is 3790 nM.
Regarding `COc1ccc(C(=O)CSc2nnc(-c3cc4ccccc4cc3O)n2Cc2ccco2)cc1`, the AC26 was 1840 nM.
In the case of `COc1ccccc1-c1csc(C(NC(C)=O)c2ccc(F)c(F)c2)n1` (stereo unspecified), the AC26 was 341 nM.
Turning to `CC(=O)OC12COC1CC(O)C1(C)C(=O)C(O)C3=C(C)C(O)CC(O)(C(OC(=O)c4ccccc4)C21)C3(C)C` (stereo unspecified), the AC26 was 1120 nM.
For the molecule `COc1ccc(Nc2nc3cc(-c4sccc4C)sc3c(=O)n2C)cc1OC`, the AC26 was 477 nM.
The result for `COc1ccc(NC(=O)C2Cc3c(-c4cccc(NC(C)=O)c4)ccnc3O2)cc1` (stereo unspecified) reads 1560 nM; that for `COc1cc(C2C(C#N)=C(N)Oc3cc(O)ccc32)cc(OC)c1OC` (stereo unspecified), 1020 nM.
The result for `COc1ccc(C(=O)c2ccc(N(C)C)cc2)c2ccccc12` reads 2000 nM.
Take `Cc1cc(-n2c(C)cc(C(=O)CCl)c2C)no1`: the AC26 is 2160 nM.
Turning to `Cc1cc(C)c2sc(NC(=O)c3ccc([N+](=O)[O-])o3)nc2c1`, the AC26 was 6640 nM.
With `C[C@@]12C(=O)Nc3cc(Cl)ccc3C(=O)N1[C@H]1c3ccccc3OC[C@@H]1[C@@H]2c1ccccc1`, the AC26 was 397 nM.
For `Cc1cccc(Nc2nc(N)nc(-c3oc4ccccc4c3C)n2)c1`, the AC26 is 7050 nM.
Take `O=C(/C=C/Sc1ccccc1)c1ccc(Cl)cc1`: the AC26 was 727 nM.
Then `CCCCn1c(SCc2c(C)noc2C)nc2cc(S(N)(=O)=O)ccc21`, with 1190 nM; and `O=C(/C=C/Sc1ccccc1)c1ccccc1`, with 2150 nM.
Consider `CC(C)c1ccc(OCc2ccc(C(=O)N3CCCC3)o2)cc1`, for which the AC26 is 4230 nM.
Turning to `Cc1cc(NC(=O)NC(=O)c2ccccc2NC(=O)C(C)N)ccc1Oc1ncc(Br)cn1` (stereo unspecified), the AC26 is 1060 nM.
As to `COc1ccc(C(=O)NCc2nnc(SCC(=O)NO)n2Cc2ccccc2)cc1`, the AC26 is 4440 nM.
Take `OC1CCCN(Cc2ccc3ccc4cccc5ccc2c3c45)C1` (stereo unspecified): the AC26 was 4270 nM.
As to `CCc1nn2c(NCCCO)cc(C)nc2c1-c1ccc(F)cc1`, the AC26 was 1630 nM.
`O=C(/C=C/c1c[nH]c2ccccc12)c1cccc2ccccc12`: the AC26 was 5410 nM.
The result for `O=C(N/N=C/c1c[nH]c2ccccc12)C1COc2ccccc2O1` (stereo unspecified) reads 1310 nM; that for `COc1cc(C(=O)NC2CCN(C)CC2)ccc1Nc1ncc2c(n1)N(CCc1ccccc1)CCC(=O)N2C`, 396 nM; that for `COc1cc(/C=N/NC(=O)c2ccc(CSc3nc4ccccc4[nH]3)cc2)cc(OC)c1OC`, 3980 nM.
For `CC(CCc1ccccc1)NC(=O)c1ccc(NC(=O)c2ccccc2)cc1` (stereo unspecified), the AC26 is 4540 nM.
Regarding `CCOc1cc(-c2cc(-c3ccccc3)nc(N)c2C#N)ccc1O`, the AC26 was 2480 nM.
The result for `COc1ccc(-c2cc(C(=O)NCC(c3ccccc3)N(C)C)c3ccccc3n2)cc1OC` (stereo unspecified) reads 1320 nM.
For the molecule `Nc1ccc(C(=O)N2CCN(S(=O)(=O)c3ccc4c(c3)OCCO4)CC2)cc1[N+](=O)[O-]`, the AC26 is 3880 nM.
The result for `Cc1cc(NC(=O)CSc2nc3sc(C)c(C)c3c(=O)n2C2CCCC2)no1` reads 4700 nM; that for `COc1cc(/C=N\NC(=O)c2sc(N)nc2C)cc(OC)c1OC`, 3140 nM.
Turning to `Cc1ccc(OCCNC(=O)C(=O)NCc2ccco2)cc1`, the AC26 was 6100 nM.
As for `COc1cc2c(cc1OC)C(=O)N1[C@H]3c4cc(Cl)ccc4OC[C@@H]3[C@H](c3ccccc3)[C@]1(C)C(=O)N2`, the AC26 is 609 nM.
The result for `CCOC(=O)C1=C(Cc2ccc(F)cc2)C(=O)c2ccccc2C1=O` reads 6390 nM; that for `O=C(Nc1cc(Cl)ccc1N1CCOCC1)c1ccc(N2CCCC2=O)cc1`, 108 nM.
`Cc1cccn2c(=O)c3cc(C(=O)NC4CCCC4)n(C)c3nc12`: the AC26 was 15100 nM.
Take `COc1cc(-c2noc(C)c2-c2ccc(N(C)C)nc2)cc(OC)c1OC`: the AC26 was 112 nM.
Regarding `O=c1[nH]c(=O)n(C2CC(O)C(CO)O2)cc1I` (stereo unspecified), the AC26 is 880 nM.
Regarding `O=C(O)c1ccc(N/N=C/c2ccc(-c3ccc(Cl)cc3Cl)o2)cc1`, the AC26 was 5330 nM.
The result for `C=CCn1c(SCc2c(C)noc2C)nc2ccccc2c1=O` reads 163 nM.
As for `COc1cc(-c2noc(C)c2/C=C/c2ccc(OC(C)=O)cc2)cc(OC)c1OC`, the AC26 is 494 nM.
In the case of `C=CCn1c(O)c(/C=C2/C=CC=N2)c(=O)[nH]c1=O`, the AC26 is 3080 nM.
In the case of `Cn1c(=O)c2cc(NC(=O)CCc3ccccc3)ccc2n1-c1ccccc1F`, the AC26 was 1780 nM.
The result for `CN(C)c1ccc(/C=C/C(=O)c2ccc(C(C)(C)C)cc2)cc1[N+](=O)[O-]` reads 5570 nM; that for `Cc1ccc(-c2nc(C(=O)NCCCN(C)C)cc3c2[nH]c2ccccc23)cc1`, 4300 nM.
As for `COc1ccc(NC(=O)C(=O)NCC2CCCN2S(=O)(=O)c2cccs2)cc1` (stereo unspecified), the AC26 was 5020 nM.
In the case of `Cc1ccc(OC(=O)CCC(=O)Oc2ccc(C)cc2C)c(C)c1`, the AC26 was > 19500 nM (inactive).
Regarding `CC(C)CCN(C(=O)Cc1ccc(Cl)c(Cl)c1)c1c(N)n(Cc2ccccc2)c(=O)[nH]c1=O`, the AC26 was 2080 nM.
On to `Oc1cc(NCc2ccc(Cl)cc2)cc2cccnc12`, for which the AC26 is 6410 nM.
On to `Cc1nnc2c(NCCC(C)C)nc3ccccc3n12`, for which the AC26 was 6080 nM.
As to `Cc1[nH]c2ccccc2c1/C=N/NC(=O)c1cc(-c2ccncc2)nc2ccccc12`, the AC26 was 4040 nM.
The result for `Cc1cccc(N2C(=O)N3[C@H](c4ccc(F)cc4)[C@@H]4C(=O)N(C5CCCCC5)C(=O)[C@@H]4[C@]3(Cc3ccccc3)C2=O)c1` reads 692 nM.
`COc1ccc(-n2c(=S)[nH]c3cc(C(=O)Nc4ccc(F)cc4)ccc3c2=O)c(OC)c1`: the AC26 is 4550 nM.
As for `COc1cc2c(cc1OC)-c1c3c(cc4c1[C@@H](C2)N(C)CC4)OCO3`, the AC26 is 17600 nM.
Consider `Cc1cc(NC(=O)CSc2nc(-c3ccco3)cc(C(F)(F)F)n2)no1`, for which the AC26 was 565 nM.
Turning to `CN(C)S(=O)(=O)c1ccc(N2CCCC2)c(C(=O)Nc2nc3ccccc3s2)c1`, the AC26 was 545 nM.
The result for `O=S(=O)([N-]c1nc2ccccc2nc1-n1cc[n+](Cc2ccccc2)c1)c1ccc(Br)cc1` reads 236 nM; that for `COc1ccc(OC)c(Nc2cc3ccccc3c(=O)[nH]2)c1`, 207 nM; that for `Cc1nnc2c3ccccc3c(-c3ccccc3)nn12`, 2870 nM.
As for `Cc1[nH]c(C)c(C(=O)/C=C/c2ccc([N+](=O)[O-])cc2)c1C`, the AC26 was 633 nM.
Regarding `COc1c(Br)cc(Br)cc1/C=N/NC(=O)c1cccnc1`, the AC26 was 10200 nM.
Consider `O=C1CCCC2=C1C(c1ccco1)Nc1ccc(C(=O)c3ccccc3)cc1N2` (stereo unspecified), for which the AC26 is 16500 nM.
Consider `CCc1ccc(N2CC(C(=O)Nc3ccccc3N3CCCC3)CC2=O)cc1` (stereo unspecified), for which the AC26 is 5370 nM.
`CCOc1ccc(Cl)cc1C1=CC(=O)C[C@H](c2ccc(OC)cc2)C1`: the AC26 is 472 nM.
For `COc1cc(F)ccc1-c1csc(C(NC(C)=O)c2cccc(F)c2)n1` (stereo unspecified), the AC26 was 206 nM.
For `Cc1ccc(/C=N/NC(=O)c2cc(-c3cccnc3)nc3ccccc23)cc1`, the AC26 was 1250 nM.
As for `COc1ccc(CC(=O)N(Cc2ccccc2)c2ccc(C)cc2)cc1S(=O)(=O)N1CCOCC1`, the AC26 was 1160 nM.
For `O=C(c1ccccc1-c1ccccc1)N1CCN(c2ccccn2)CC1`, the AC26 is 2340 nM.
Then `C=CCNc1nc(Nc2ccc(OC)c(OC)c2)c2sc(-c3ccccc3)cc2n1`, with 513 nM; and `COc1ccc(OC)c(-c2nnc3n2N=C(c2ccc(OC)c(OC)c2)CS3)c1`, with 4160 nM; and `COc1ccc(NC(=O)C2Cc3c(-c4cccc(C(C)=O)c4)ccnc3O2)cn1` (stereo unspecified), with 203 nM.
For the molecule `CCn1c2ccccc2c2cc(NC(=O)COC(=O)C3CCC(=O)N3)ccc21` (stereo unspecified), the AC26 is 3400 nM.
With `CNc1ncnc(Sc2ccc(Cl)cc2)c1[N+](=O)[O-]`, the AC26 is 4540 nM.
For `O=C(NO)c1ccc(OC(F)F)cc1`, the AC26 is 3430 nM.
The result for `COc1ccc(C(=O)c2ccc(OC)c(N)c2)cc1N` reads 143 nM; that for `CCN(CC)CCCNc1cc(C)c(C#N)c2nc3ccccc3n12`, 17000 nM; that for `C[C@H](O)[C@@H]1CN2CCc3c([nH]c4ccccc34)[C@@H]2C[C@@H]1N(C)C(=O)c1ccco1`, 408 nM.
For `COC(=O)c1ccc2c(=O)n(Cc3ccco3)c(SCC(=O)Nc3cc(C)on3)nc2c1`, the AC26 was 2190 nM.
The result for `Nc1nc(=S)c2ncn(C3OC(CO)C(O)C3O)c2[nH]1` (stereo unspecified) reads 4980 nM; that for `COc1ccc(C2Nc3ccc4ccccc4c3-c3c2c(=O)oc2ccccc32)cc1` (stereo unspecified), 2070 nM.
Turning to `CCOc1ccc(S(=O)(=O)NCc2ccccn2)cc1NC(=O)c1ccccc1F`, the AC26 was 593 nM.
Turning to `CC(C)CC(NC(=O)c1ccc(Cl)cc1)C(=O)OCC(=O)c1ccc2c(c1)NC(=O)CO2` (stereo unspecified), the AC26 was 4090 nM.
Turning to `Cc1cc(C)cc(C(=O)N2CC(=O)Nc3ccccc32)c1`, the AC26 was 265 nM.
Take `Cc1ccc(N2C(=O)Nc3ccccc3C2(O)C(=O)N2CCN(c3ccccn3)CC2)cc1C` (stereo unspecified): the AC26 is 330 nM.
Regarding `Cc1ccc(NC(=O)c2ncn(CCCNCc3ccccc3)n2)cc1C`, the AC26 was 800 nM.
With `Cc1ccc(NC(=O)C(Cc2ccccc2)N2C(=O)C3C4CCC(C4)C3C2=O)cc1Cl` (stereo unspecified), the AC26 was 3240 nM.
The result for `COc1ccc2nc(SCC(=O)NC3CCCC3)c(C)cc2c1` reads 10200 nM; that for `CC(C)(C)NCC(O)CON=C1c2ccccc2-c2ccccc21` (stereo unspecified), 5310 nM.
As for `CC(O)CN=c1cc(-c2ccccc2)oc2ccc(Cl)cc12` (stereo unspecified), the AC26 is 1150 nM.
As for `COc1ccc(CC(=O)N/N=C/c2c(C)n(C)c3ccccc23)cc1OC`, the AC26 is 4460 nM.
